Values quoted from earlier work as cited in patent US20240383928A1, “PRODUCTION OF DIORGANOTIN DIHALIDES” (priority 2021, published 2024).

Tested on: mice
Settings: intraperitoneal injection

SMILES	LD50 (time not stated, all animals that survived for 25 minutes recovered)	2-hr. LD50	24-hr. LD50
CC[N+](CC)(CC)CC.[Cl-] [N(C2H5)4Cl]	60 mg/kg		
C[CH2][Sn]([CH2]C)([CH2]C)[CH2]C [Sn(C2H5)4]		660 mg/kg	130 mg/kg
[CH3][Sn]([CH3])([CH3])[CH3] [Sn(CH3)4, tetramethyl tin]		140 mg/kg	18 mg/kg
